{
  "source": "patent US8344029B2",
  "about": "“Substituted propanamide derivative and pharmaceutical composition containing the same” (Daiichi Sankyo Company, Limited, priority 2005, dated 2013)",
  "data": [
    {"tested_on": "adjuvant arthritis model rats (8-week old female Lewis rats)", "experiment": "Bone density decrease-suppressing activity in adjuvant arthritis model rats", "assay_type": "in vivo, rat", "conditions": "dose 3 mg/kg, oral once a day for 7 days from day 14 after adjuvant injection; femur bone density on the 21st day", "method": "In rheumatoid arthritis, not only swelling and pain caused by arthritis but also systemic bone mass decrease and articular destruction caused by a significant increase in bone resorption are observed.\nThe test was conducted using 8-week old female Lewis rats. Mycobacterium butyricum cells killed by heat were ground in an agate mortar, suspended in liquid paraffin sterilized by dry heat to a concentration of 2 mg/mL, and treated with ultrasonic to prepare an adjuvant. Under ether anesthesia, rats in a control group other than a normal control group and rats in test compound administration group were intradermally injected with 0.05 mL of the adjuvant each time (0.1 mL/rat in total) at two portions of the base of the tail. Starting from 14 days after the injection of the adjuvant, each rat was orally administered with 5 mL/kg of a test compound suspended in 0.5% MC once a day for 7 days. The rats of the control group were similarly administered with 0.5% MC alone. On the 21st day after the adjuvant injection, the femur was biopsied. The femur, after removing soft tissues, was sufficiently fixed, dehydrated, and dried with ethanol. The bone density of the femur was measured with a bone density analyzer (Aloka, DOS-600 EX-IIIR). Five rats were used for each group.\nThe evaluation was conducted by comparative tests with the normal control group and the control group based on the bone density decrease-suppressing rate (%) calculated according to the following equation: Bone density decrease-suppressing rate(%)=((1−([femur bone density in normal control group]−[femur bone density in test compound administration group]))/([femur bone density in normal control group]−[femur bone density in control group]))×100", "units": {"Bone density decrease-suppressing rate (%)": "%"}, "values": [
      {"smiles": "O=C(N[C@@H](Cc1ccc(OC(F)(F)F)cc1)C(=O)NCCO)c1ccc(OCC2CC2)cc1", "note": "[Example 51, 4-(Cyclopropylmethoxy)-N-{(1S)-2-[(2-hydroxyethyl)amino]-2-oxo-1-[4-(trifluoromethoxy)benzyl]ethyl}benzamide]", "Bone density decrease-suppressing rate (%)": 85},
      {"smiles": "O=C(N[C@@H](Cc1ccc(OC(F)(F)F)cc1)C(=O)NCCO)c1ccc(OCCC(F)(F)F)cc1", "note": "[Example 57, N-{(1S)-2-[(2-Hydroxyethyl)amino]-2-oxo-1-[4-(trifluoromethoxy)benzyl]ethyl}-4-(3,3,3-trifluoropropoxy)benzamide]", "Bone density decrease-suppressing rate (%)": 86},
      {"smiles": "O=C(N[C@@H](Cc1ccc(OC(F)F)cc1)C(=O)NCCO)c1ccc(OCCC(F)(F)F)cc1", "note": "[Example 59, N-{(1S)-1-[4-(Difluoromethoxy)benzyl]-2-[(2-hydroxyethyl)amino]-2-oxoethyl}-4-(3,3,3-trifluoropropoxy)benzamide]", "Bone density decrease-suppressing rate (%)": 92},
      {"smiles": "O=C(N[C@@H](Cc1ccc(C(F)(F)F)cc1)C(=O)NCCO)c1ccc(OCCC(F)(F)F)cc1", "note": "[Example 61, N-{(1S)-2-[(2-Hydroxyethyl)amino]-2-oxo-1-[4-(trifluoromethyl)benzyl]ethyl}-4-(3,3,3-trifluoropropoxy)benzamide]", "Bone density decrease-suppressing rate (%)": 75},
      {"smiles": "O=C(N[C@@H](Cc1ccc(OC(F)(F)F)cc1)C(=O)NCCO)c1ccc(Oc2ccc(C(F)(F)F)cc2)cc1", "note": "[Example 64, N-{(1S)-2-[(2-Hydroxyethyl)amino]-2-oxo-1-[4-(trifluoromethoxy)benzyl]ethyl}-4-[4-(trifluoromethyl)phenoxy]benzamide]", "Bone density decrease-suppressing rate (%)": 77}
    ]},
    {"tested_on": "immature rats (4-week old male Wistar rats)", "experiment": "Evaluation of blood calcium concentration-decreasing activity in immature rats", "assay_type": "in vivo", "conditions": "Rattus norvegicus; 6 hours after oral administration of 10 mg/kg, fasted 4-week old male Wistar rats, vs normal control group; read-out: serum calcium concentration-decreasing rate", "method": "The blood calcium concentration in a living body is strictly controlled and constantly maintained by intestinal absorption and urinary excretion and release (bone resorption) and adhesion (bone formation) in bone tissues. […] The bone resorption-suppressing activity of compounds according to the present invention was evaluated by observing decreases in blood calcium concentration in immature rats administered with the compounds as an index of the activity.\nThe test was conducted using 4-week old male Wistar rats fasted for 12 to 24 hours. Each compound to be tested was suspended in 0.5% methyl cellulose (MC). The suspension was orally administered to the rats at a dose of 5 mL/kg. Rats of a normal control group were similarly administered with 0.5% MC alone. Then, blood was drawn from rat jugular vein under ether anesthesia 6 hours after the administration of each test compound or 0.5% MC. The blood was immediately centrifuged (10000 rpm/revolutions per minute, 5 minutes) at room temperature to separate serum. The calcium concentration of each serum was measured by an autoanalyzer (JEOL, JCA-BM2250). Five rats were used for each test group.\nThe evaluation was conducted by a comparative test with the normal control group based on the serum calcium concentration-decreasing rate (%) calculated according to the following equation: Serum calcium concentration-decreasing rate(%)=(([serum calcium concentration in normal control group]−[serum calcium concentration in test compound administration group]/[serum calcium concentration in normal control group])×100.", "units": {"inhibition in vivo at 10 mg/kg": "%"}, "values": [
      {"smiles": "O=C(NC(Cc1ccc(OC(F)F)cc1)C(=O)NCCO)c1ccc(OCCC2CC2)cc1", "note": "(stereo not drawn) [Example 3, 4-(2-Cyclopropylethoxy)-N-{1-[4-(difluoromethoxy)benzyl]-2-[(2-hydroxyethyl)amino]-2-oxoethyl}benzamide]", "inhibition in vivo at 10 mg/kg": "≥ 10"},
      {"smiles": "O=C(NC(Cc1ccc(OC(F)(F)F)cc1)C(=O)NCCO)c1ccc(OCCC2CC2)cc1", "note": "(stereo not drawn) [Example 4, 4-(2-Cyclopropylethoxy)-N-{2-[(2-hydroxyethyl)amino]-2-oxo-1-[4-(trifluoromethoxy)benzyl]ethyl}benzamide]", "inhibition in vivo at 10 mg/kg": "≥ 10"},
      {"smiles": "O=C(NC(Cc1ccc(C(F)(F)F)cc1)C(=O)NCCO)c1ccc(OCCC2CC2)cc1", "note": "(stereo not drawn) [Example 7, 4-(2-Cyclopropylethoxy)-N-{2-[(2-hydroxyethyl)amino]-2-oxo-1-[4-(trifluoromethyl)benzyl]ethyl}benzamide]", "inhibition in vivo at 10 mg/kg": "≥ 10"},
      {"smiles": "O=C(NC(Cc1ccc(OC(F)F)cc1)C(=O)NCCO)c1ccc(OCC2CC2)cc1", "note": "(stereo not drawn) [Example 18, 4-(Cyclopropylmethoxy)-N-{1-[4-(difluoromethoxy)benzyl]-2-[(2-hydroxyethyl)amino]-2-oxoethyl}benzamide]", "inhibition in vivo at 10 mg/kg": "≥ 10"},
      {"smiles": "O=C(NC(Cc1ccc(OC(F)(F)F)cc1)C(=O)NCCO)c1ccc(OCC2CC2)cc1", "note": "(stereo not drawn) [Example 19, 4-(Cyclopropylmethoxy)-N-{2-[(2-hydroxyethyl)amino]-2-oxo-1-[4-(trifluoromethoxy)benzyl]ethyl}benzamide]", "inhibition in vivo at 10 mg/kg": "≥ 10"},
      {"smiles": "O=C(NC(Cc1ccc(OC2CC2)cc1)C(=O)NCCO)c1ccc(OCC2CC2)cc1", "note": "(stereo not drawn) [Example 20, 4-(Cyclopropylmethoxy)-N-{1-[4-(cyclopropyloxy)benzyl]-2-[(2-hydroxyethyl)amino]-2-oxoethyl}benzamide]", "inhibition in vivo at 10 mg/kg": "≥ 10"},
      {"smiles": "O=C(NC(Cc1ccc(C(F)(F)F)cc1)C(=O)NCCO)c1ccc(OCC2CC2)cc1", "note": "(stereo not drawn) [Example 22, 4-(Cyclopropylmethoxy)-N-{2-[(2-hydroxyethyl)amino]-2-oxo-1-[4-(trifluoromethyl)benzyl]ethyl}benzamide]", "inhibition in vivo at 10 mg/kg": "≥ 10"},
      {"smiles": "O=C(NC(Cc1ccc(C2CC2)cc1)C(=O)NCCO)c1ccc(OCC2CC2)cc1", "note": "(stereo not drawn) [Example 23, N-{1-(4-Cyclopropylbenzyl)-2-[(2-hydroxyethyl)amino]-2-oxoethyl}-4-(cyclopropylmethoxy)benzamide]", "inhibition in vivo at 10 mg/kg": "≥ 10"},
      {"smiles": "O=C(NC(Cc1ccc(OC(F)(F)F)cc1)C(=O)NCCO)c1ccc(OCCCC2CC2)cc1", "note": "(stereo not drawn) [Example 25, 4-(3-Cyclopropylpropoxy)-N-{2-[(2-hydroxyethyl)amino]-2-oxo-1-[4-(trifluoromethoxy)benzyl]ethyl}benzamide]", "inhibition in vivo at 10 mg/kg": "≥ 10"},
      {"smiles": "O=C(NC(Cc1ccc(OC(F)(F)F)cc1)C(=O)NCCO)c1ccc(OCC(F)F)cc1", "note": "(stereo not drawn) [Example 31, 4-(2,2-Difluoroethoxy)-N-{2-[(2-hydroxyethyl)amino]-2-oxo-1-[4-(trifluoromethoxy)benzyl]ethyl}benzamide]", "inhibition in vivo at 10 mg/kg": "≥ 10"},
      {"smiles": "O=C(NC(Cc1ccc(OC(F)(F)F)cc1)C(=O)NCCO)c1ccc(OCCC(F)(F)F)cc1", "note": "(stereo not drawn) [Example 34, N-{2-[(2-Hydroxyethyl)amino]-2-oxo-1-[4-(trifluoromethoxy)benzyl]ethyl}-4-(3,3,3-trifluoropropoxy)benzamide]", "inhibition in vivo at 10 mg/kg": "≥ 10"},
      {"smiles": "O=C(NC(Cc1ccc(OC(F)(F)F)cc1)C(=O)NCCO)c1ccc(OCC2CC2(F)F)cc1", "note": "(stereo not drawn) [Example 40, 4-[(2,2-Difluorocyclopropyl)methoxy]-N-{2-[(2-hydroxyethyl)amino]-2-oxo-1-[4-(trifluoromethoxy)benzyl]ethyl}benzamide]", "inhibition in vivo at 10 mg/kg": "≥ 10"},
      {"smiles": "O=C(NC(Cc1ccc(OC(F)(F)F)cc1)C(=O)NCCO)c1ccc(Oc2ccc(C(F)(F)F)cc2)cc1", "note": "(stereo not drawn) [Example 42, N-{2-[(2-Hydroxyethyl)amino]-2-oxo-1-[4-(trifluoromethoxy)benzyl]ethyl}-4-[4-(trifluoromethyl)phenoxy]benzamide]", "inhibition in vivo at 10 mg/kg": "≥ 10"}
    ]}
  ]
}
